Assay results reported in patent publication US20260028336A1 (Arcus Biosciences, Inc., priority 2022, published 2026).

Tests used:
Cbl-b = target: T1, Cbl-b (Homo sapiens, UniProt Q13191); experiment: Cbl-b probe displacement HTRF binding assay; conditions: 0.4 nM biotinylated Cbl-b, 150 nM BODIPY probe
T1 construct: biotin (biotinylated)
In short: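 Biotinylated Cbl-b was preincubated with compound for 60 min at room temperature in HEPES/NaCl/Triton/TCEP/BSA buffer. BODIPY probe was added for 15 min, followed by streptavidin-terbium, and the HTRF signal was read. Displacement was normalised to DMSO and no-protein controls, and affinity was obtained from a four-parameter dose-response fit.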

Jurkat cells = experiment: IL-2 secretion assay in CD3/CD28-activated Jurkat cells (AlphaLISA); assay type: cell-based; conditions: Homo sapiens, CD3/CD28 T Cell Activator, 24 h, IL-2 AlphaLISA
In short: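 Jurkat cells (50,000/well) were preincubated 1 h at 37° C with compound in a 16-point 1:2 series spanning 10 μM to 300 pM final. Cells were then activated with CD3/CD28 T cell activator, and secreted IL-2 was read by AlphaLISA. EC50 came from 4-parameter logistic fits.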

T1 sequence (Q13191 whole entry, species assumed): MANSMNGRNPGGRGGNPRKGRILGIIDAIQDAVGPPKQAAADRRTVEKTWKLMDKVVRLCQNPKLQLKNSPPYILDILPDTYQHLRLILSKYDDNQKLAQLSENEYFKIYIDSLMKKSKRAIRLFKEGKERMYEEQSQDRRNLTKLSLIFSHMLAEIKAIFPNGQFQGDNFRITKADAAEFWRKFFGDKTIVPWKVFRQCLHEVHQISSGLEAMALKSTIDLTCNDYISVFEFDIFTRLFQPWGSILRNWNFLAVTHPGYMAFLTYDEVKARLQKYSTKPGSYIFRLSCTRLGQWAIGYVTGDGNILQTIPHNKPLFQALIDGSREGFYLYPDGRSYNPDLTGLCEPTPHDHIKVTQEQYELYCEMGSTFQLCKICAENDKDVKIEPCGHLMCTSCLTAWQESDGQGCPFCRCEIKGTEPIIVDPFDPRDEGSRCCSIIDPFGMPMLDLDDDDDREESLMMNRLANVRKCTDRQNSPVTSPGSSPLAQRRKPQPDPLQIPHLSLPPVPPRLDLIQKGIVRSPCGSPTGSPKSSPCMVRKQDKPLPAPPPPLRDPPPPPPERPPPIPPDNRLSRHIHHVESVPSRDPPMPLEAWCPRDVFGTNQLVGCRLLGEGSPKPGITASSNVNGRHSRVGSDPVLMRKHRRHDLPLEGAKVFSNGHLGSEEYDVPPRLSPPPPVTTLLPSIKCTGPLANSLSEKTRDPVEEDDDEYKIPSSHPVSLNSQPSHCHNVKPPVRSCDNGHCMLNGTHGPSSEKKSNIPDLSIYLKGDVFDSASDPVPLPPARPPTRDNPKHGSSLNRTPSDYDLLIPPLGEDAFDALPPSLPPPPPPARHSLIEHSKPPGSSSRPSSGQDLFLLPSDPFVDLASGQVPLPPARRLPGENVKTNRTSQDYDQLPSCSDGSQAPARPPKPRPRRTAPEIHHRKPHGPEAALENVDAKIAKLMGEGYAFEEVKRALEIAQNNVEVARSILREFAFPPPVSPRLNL

SMILES | IC50 (Cbl-b) [nM] | EC50 (Jurkat cells) [nM]
C[C@@H]1CN(Cc2nc3c(C4CC4)cn(-c4cccc([C@]5(c6nncn6C)C[C@H](C)C5)c4)c(=O)c3[nH]2)CCO1 [Example 110, 7-cyclopropyl-5-[3-[3-methyl-1-(4-methyl-1,2,4-triazol-3-yl)cyclobutyl]phenyl]-2-[[(2R)-2-methylmorpholin-4-yl]methyl]-3H-imidazo[4,5-c]pyridin-4-one] | < 100 | 100 to 1000
C[C@H]1CCCN(Cc2cc3c(C4CC4)cn(-c4cc(C(C)(C)c5nncn5C)ccn4)c(=O)c3[nH]2)C1 [Example 160, 2—{[(S)-3-methyl-1-piperidyl]methyl}-4-cyclopropyl-6-{4-[1-methyl-1-(4-methyl-4H-1,2,4-triazol-3-yl)ethyl]-2-pyridyl}-1,6-dihydro-1,6-diaza-7-indenone] | 100 to 1000 | 100 to 1000
